Source: PMC11675283, “Anticholinesterase Activity and Bioactive Compound Profiling of Six Hop (Humulus lupulus L.) Varieties” (Foods, 2024)
In brackets after ≈: the same amount, converted by molar mass.

Target: T1, tyrosinase from mushrooms
T1 construct: gene PPO3; commercial native mushroom tyrosinase (Sigma-Aldrich), isoenzyme mixture
Assay: colorimetric diphenolase assay, absorbance at […] nm
Assay type: biochemical
Conditions: L-DOPA substrate

O=C(O)CCCCCCCC(=O)O [azelaic acid]
IC50: 1470 µg/mL (≈ 7.81 mM)
